Data: ChEMBL document CHEMBL1201862, “PubChem BioAssay data set” (2004)
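Protocol summary: plate cells (96-well), add compound at 5 concentrations, incubate 48 h, interpolate endpoints linearly. The concentration for 50% growth inhibition is given as GI50.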 Calls of active or inactive are those of the source. Rule as the data show it: active = GI50 up to about 1.1 µM and inactive = higher.

Key:
Experiment in all cases: growth of human tumour cells (NCI), 48 h
Hs-578T = system: Hs-578T
DLD-1 = system: DLD-1
KM-20L2 = system: KM-20L2
M19-MEL = system: M19-MEL
SNB-78 = system: SNB-78
DMS-114 = system: DMS-114
HOP-18 = system: HOP-18
XF498 = system: XF498
RXF 631 = system: RXF 631

Q: With `Oc1cc(Cl)cc2cccnc12` as the compound, how does the GI50 (Hs-578T) read?
A: 4.05 µM (inactive)

Q: Which GI50 (Hs-578T) does the source give for `COC(O)C(=O)c1c2c(cc3c1CCC3)CCCC2` (centres undefined) here?
A: 4.22 µM (inactive)

Q: What does the source list for `Cn1c(=O)n(C2(C)C[Se]C2)c2ccccc21`?
A: GI50 (DLD-1): > 100 µM (inactive); GI50 (KM-20L2): > 100 µM (inactive); GI50 (M19-MEL): > 100 µM (inactive); GI50 (SNB-78): > 100 µM (inactive)

Q: Which GI50 (Hs-578T) does the source give for `C=C1C(=O)O[C@H]2C/C(C=O)=C\[C@H]3O[C@H]3/C(COC(=O)C(C)C)=C/CC12` (some centres undefined) here?
A: 2.89 µM (inactive)

Q: `COC1=C(N)C(=O)c2nc(C)ccc2C1=O` was tested. Which GI50 (DLD-1) did it give?
A: 2.31 µM (inactive)

Q: And the GI50 (DMS-114)?
A: 1.78 µM (inactive)

Q: And the GI50 (HOP-18)?
A: 1.98 µM (inactive)

Q: And the GI50 (KM-20L2)?
A: 2.3 µM (inactive)

Q: What about the GI50 (M19-MEL) of the same compound?
A: 0.308 µM (active)

Q: And the GI50 (SNB-78)?
A: 3.52 µM (inactive)

Q: What about the GI50 (XF498) of the same compound?
A: 1.51 µM (inactive)

Q: With `Cc1cc(C)n(C(=O)C(C)Sc2nnc(SC(C)C(=O)n3nc(C)cc3C)s2)n1` (centres undefined) as the compound, how does the GI50 (Hs-578T) read?
A: > 100 µM (inactive)

Q: `CC(C)(C)Sc1nnc(SC(C)(C)C)c2c(SC(C)(C)C)nnc(O)c12` was tested. Which GI50 (DLD-1) did it give?
A: 10.9 µM (inactive)

Q: What about the GI50 (DMS-114) of the same compound?
A: 4.31 µM (inactive)

Q: What about the GI50 (KM-20L2) of the same compound?
A: 10.4 µM (inactive)

Q: What about the GI50 (M19-MEL) of the same compound?
A: 4.37 µM (inactive)

Q: And the GI50 (RXF 631)?
A: 3.2 µM (inactive)

Q: What about the GI50 (SNB-78) of the same compound?
A: 12.2 µM (inactive)

Q: What about the GI50 (XF498) of the same compound?
A: 15.3 µM (inactive)

Q: How did the GI50 (Hs-578T) turn out when `CN1CCN(c2ccc3c(c2)NCC(=O)N3)CC1` was run?
A: > 100 µM (inactive)

Q: `Cn1c(CO)ccc1-c1ccc(-c2ccc(CO)[se]2)[se]1` was tested. Which GI50 (Hs-578T) did it give?
A: > 100 µM (inactive)

Q: For `COc1ccc2nc3c([N+](=O)[O-])ccc4c3c(c2c1)N=CN4CCCN(C)C`, which GI50 (Hs-578T) is on record?
A: 7.28 µM (inactive)

Q: `CCOC(=O)Cn1nnc2cc(Nc3c(C)[n+]([O-])c4cc(F)c(OCC)cc4[n+]3[O-])ccc21` was tested. Which GI50 (Hs-578T) did it give?
A: 41.8 µM (inactive)

Q: For `CC1CC(C)(O)CC(C(O)CC2CC(=O)NC(=O)C2)C1=O` (centres undefined) [RESACTIN A], which GI50 (Hs-578T) is on record?
A: < 0.0126 µM (active)

Q: Which GI50 (Hs-578T) does the source give for `Cc1cc(N(CCC#N)CCC#N)ccc1C(/N=N/c1ccc(Cl)cc1)=N\NC(=O)c1ccccc1` here?
A: 17 µM (inactive)

Q: Which GI50 (Hs-578T) does the source give for `N#Cc1c(-c2ccc(Cl)cc2)cc(-c2nc3ccccc3[nH]2)nc1N` here?
A: 16.5 µM (inactive)

Q: Which results are given for `CC1=NNC(=O)C2CCC(=O)N12` (centres undefined)?
A: GI50 (DLD-1): > 100 µM (inactive); GI50 (DMS-114): > 100 µM (inactive); GI50 (HOP-18): > 100 µM (inactive); GI50 (KM-20L2): 49.2 µM (inactive); GI50 (M19-MEL): > 100 µM (inactive); GI50 (RXF 631): > 100 µM (inactive); GI50 (SNB-78): > 100 µM (inactive)

Q: For `Cc1ccc(CN2CCN(Cc3ccc(C)o3)C(C)C2)o1` (centres undefined), which GI50 (Hs-578T) is on record?
A: > 100 µM (inactive)

Q: With `COc1cc2ccccc2c2cc([N+](=O)[O-])oc12` as the compound, how does the GI50 (Hs-578T) read?
A: 2.28 µM (inactive)

Q: With `CCOC(=O)C(C(=O)OCC)P(=S)(S)c1ccccc1` (centres undefined) as the compound, how does the GI50 (DLD-1) read?
A: > 100 µM (inactive)

Q: And the GI50 (DMS-114)?
A: > 100 µM (inactive)

Q: What about the GI50 (KM-20L2) of the same compound?
A: > 100 µM (inactive)

Q: What about the GI50 (M19-MEL) of the same compound?
A: > 100 µM (inactive)

Q: What about the GI50 (RXF 631) of the same compound?
A: > 100 µM (inactive)

Q: And the GI50 (XF498)?
A: > 100 µM (inactive)
